Entries after “also recorded” stand apart in the source; their conditions may differ. One block for each molecule: values may come before it.
Key:
[1] = tested on: LPS-induced mouse inflammatory depression-like behaviors; assay: Behavioral tests (Forced Swimming Test, Tail Suspension Test) in mice after modeling with LPS; type: in vivo; conditions: High dose group (14 mg/kg), gavage 7 days, 24 h after LPS
Procedure: (§1) The mice were randomly divided into 6 groups (16 for each group): Blank group, Model group, Fluoxetine hydrochloride (a positive drug) group (10 mg/kg), Low dose of albiflorin group (3.5 mg/kg), Medium dose of albiflorin group (7 mg/kg), and High dose of albiflorin group (14 mg/kg), and administered continuously by gavage for 7 days.
1. The behavioral tests: Forced Swimming Test (FST), Tail Suspension Test (TST) and Open Field Test (OFT)
(§2) On the 7th day after administration, LPS was injected intraperitoneally (0.83 mg/kg) for modeling. At 16 h after the injection, the Open Field Test (OFT) was carried out; at 24 h after the injection, the Forced Swimming Test (FST) and Tail Suspension Test (TST) were carried out. Thereafter, the blood was taken by enucleating eyeball, and centrifuged to collect the plasma. After the mice were sacrificed, the hippocampal tissues were taken out and quickly frozen in liquid nitrogen, and stored at −80° C.
(§3) The test data are shown in mean±SE, and originPro8.0 software was used for the statistical analysis of the data and plotting.

IDO = target: T1, IDO (Mus musculus, UniProt P28776); assay: Ratio of kynurenine/tryptophan (IDO activity) in mouse hippocampal tissue after modeling with LPS; type: in vivo; conditions: LPS mice, gavage 7 days
T1 construct: ratio of kynurenine/tryptophan (KYN/TrP) in the mouse hippocampal tissue; from tissue; host or cells: mouse hippocampal tissue (LPS model)
Procedure: as §1, §2
3. Determination of the effects of albiflorin and fluoxetine on expression of IDO in the mouse hippocampal tissue.
as §3
The activity of IDO in the hippocampus was expressed through the levels of KYN and TrP and the ratio of KYN/TrP.

[2] = tested on: melatonin receptors 1 (MT1); assay: Western Blot of MT1 in hippocampal tissue of chronic unpredictable mild stress (CUMS) rats; type: in vivo, rat; conditions: for MT1 (folds relative to Blank group): CUMS rat hippocampal tissue, Mean±SE
From the text: (§4) 1. […] Western Blot was used to detect the effects of albiflorin on IDO and MT1, and the results are found in FIG. 1:
(§5) Effects of albiflorin on indoleamine 2,3-dioxygenase (IDO) and melatonin receptors 1 (MT1) in the rat hippocampal tissue (Mean±SE)

[3] = tested on: tryptophan metabolic pathway (kynurenine-quinolinic acid / serotonin-melatonin); assay: Tryptophan metabolites in hippocampus of CUMS rats; type: in vivo, rat; conditions: after 7 days of administration (7 mg/kg, 14 mg/kg)
[4] = tested on: indoleamine 2,3-dioxygenase (IDO); assay: Western Blot of IDO in hippocampal tissue of chronic unpredictable mild stress (CUMS) rats; type: in vivo, rat; conditions: for IDO (folds relative to Blank group): CUMS rat hippocampal tissue, Mean±SE
From the text: as §4, §5

[5] = tested on: IL-6, TNF-α, CORT in mouse hippocampal tissue; assay: ELISA of inflammatory factors and CORT in mouse hippocampal tissue after modeling with LPS; type: in vivo; conditions: LPS mice, gavage 7 days
Procedure: as §1, §2
(§6) 2. Determination of the effects of albiflorin and the positive drug fluoxetine on the concentrations of inflammatory factors IL-6, TNF-α, and PGE2, and glucocorticoid CORT in the mouse plasma and hippocampal tissue.
as §3
An ELISA assay was used to detect the levels of inflammatory factors IL-6, TNF-α and PGE2, and CORT in the mouse hippocampal tissue.

[6] = tested on: IL-6, TNF-α, CORT in mouse plasma; assay: Levels of inflammatory factors and CORT in mouse plasma after modeling with LPS; type: in vivo; conditions: LPS mice, gavage 7 days
Procedure: as §1, §2, §6, §3

[7] = CUMS rat, after 7 days of administration (7 mg/day, 14 mg/day), P<0.01
[8] = medium and high doses (7, 14 mg/kg)

T1 sequence (P28776 whole entry): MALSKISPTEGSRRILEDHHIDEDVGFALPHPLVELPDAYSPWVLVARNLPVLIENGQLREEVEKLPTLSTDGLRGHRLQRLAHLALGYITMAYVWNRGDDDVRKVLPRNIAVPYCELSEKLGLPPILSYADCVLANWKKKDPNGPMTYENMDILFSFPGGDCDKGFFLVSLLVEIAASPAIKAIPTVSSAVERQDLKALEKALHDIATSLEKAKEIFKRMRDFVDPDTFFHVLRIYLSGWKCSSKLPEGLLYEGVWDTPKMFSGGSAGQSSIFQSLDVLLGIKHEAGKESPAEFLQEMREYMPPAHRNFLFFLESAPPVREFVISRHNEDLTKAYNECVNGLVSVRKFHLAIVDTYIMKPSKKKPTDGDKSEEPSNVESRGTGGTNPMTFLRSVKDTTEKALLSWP

ratio of kynurenine/tryptophan (KYN/TrP) in the mouse hippocampal tissue compared with Model group (IDO; High dose group (14 mg/kg), P<0.05): decreased
Structure (SMILES): C[C@]12C[C@@H](O)[C@@H]3C[C@@]1(O[C@@H]1O[C@H](CO)[C@@H](O)[C@H](O)[C@H]1O)[C@]3(COC(=O)c1ccccc1)C(=O)O2 [Albiflorin, albiflorin]
immobility time in the Tail Suspension Test compared with Model group [1]: significant difference
activity of IDO in the mouse hippocampal tissue (IDO; High dose (14 mg/kg), 14 mg/kg): significantly inhibited; also recorded: decrease
MT1 (folds relative to Blank group) ([2]; 3.5 mg/kg): 1.37 ± 0.013 folds relative to Blank group
MT1 (folds relative to Blank group) ([2]; 7 mg/kg): 1.39 ± 0.0014 folds relative to Blank group
MT1 (folds relative to Blank group) ([2]; 14 mg/kg): 1.39 ± 0.014 folds relative to Blank group
melatonin receptors 1 (MT1) in the rat hippocampus [2, 7]: increased significantly
ratio of kynurenine to tryptophan (KYN/TrP) ([3]; CUMS rat hippocampus): downregulated significantly
level of kynurenine in the rat hippocampus ([3]; CUMS rat, P<0.01): decreased significantly
level of melatonin in the hippocampus ([3]; CUMS rat, P<0.01): increased significantly
level of quinolinic acid in the rat hippocampus ([3]; CUMS rat, P<0.01): decreased significantly
level of serotonin in the hippocampus ([3]; CUMS rat, P<0.01): increased significantly
IDO (folds relative to Blank group) ([4]; 3.5 mg/kg): 1.46 ± 0.014 folds relative to Blank group
IDO (folds relative to Blank group) ([4]; 7 mg/kg): 1.02 ± 0.010 folds relative to Blank group
IDO (folds relative to Blank group) ([4]; 14 mg/kg): 0.80 ± 0.008 folds relative to Blank group
IDO activity in the rat hippocampus [4, 7]: significantly inhibited
level of IL-6 in the mouse hippocampal tissue compared with Model group ([5]; High dose group (14 mg/kg)): significantly decreased
level of TNF-α in the mouse hippocampal tissue compared with Model group ([5]; High dose group (14 mg/kg)): significantly decreased
level of CORT in the hippocampal tissue [5]: substantially decreased
concentration of CORT in the mouse plasma [6]: substantially decrease
level of IL-6 in the mouse plasma [6, 8]: substantially decreased
level of TNF-α in the mouse plasma [6, 8]: substantially decreased

LPS-induced activation/overexpression of IDO in the hippocampus compared with Model group (IDO; 10 mg/kg): failed to be corrected
Structure (SMILES): CNCCC(Oc1ccc(C(F)(F)F)cc1)c1ccccc1 (stereo not shown) [Fluoxetine, fluoxetine, reference compound]
MT1 (folds relative to Blank group) ([2]; 10 mg/kg): 0.50 ± 0.005 folds relative to Blank group
IDO (folds relative to Blank group) ([4]; 10 mg/kg): 1.29 ± 0.014 folds relative to Blank group

Reference: patent publication US20190336519A1, “APPLICATION OF ALBIFLORIN AS INDOLEAMINE 2,3-DIOXYGENASE (IDO) INHIBITOR” (priority 2017, published 2019)
